What was measured:
RORγt-LBD = target: T1, RORγt-LBD (Homo sapiens, UniProt P51449); test: Time-resolved fluorescence resonance energy-transfer assay (TR-FRET), co-activator peptide recruitment; type: biochemical; design: TR-FRET Biochemical Amax: unit not given here; conditions: for EC50: His-RORγt-LBD 30 nM, SRC peptide 500 nM, agonistic activity, averages of one or more measurements, read-out: TR-FRET Biochemical EC50/; for TR-FRET Biochemical Amax: upper activation limit, His-RORγt-LBD, SRC peptide
T1 sequence (P51449 269-508 limits assumed): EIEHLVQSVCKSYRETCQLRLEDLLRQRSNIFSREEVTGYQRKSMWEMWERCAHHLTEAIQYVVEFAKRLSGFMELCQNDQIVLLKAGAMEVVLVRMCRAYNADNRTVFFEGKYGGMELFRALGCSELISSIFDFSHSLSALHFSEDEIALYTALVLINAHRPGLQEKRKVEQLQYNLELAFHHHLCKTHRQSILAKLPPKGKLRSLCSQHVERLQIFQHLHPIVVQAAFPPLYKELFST
Source text: I. Time-Resolved Fluorescence Resonance Energy-Transfer Assay (TR-FRET)
This experiment was a screening experiment for RORγt nuclear receptor agonists based on TR-FRET technology. When His-labeled RORγt-LBD receptor binds to receptor agonists, it may increase the recruitment of biotin-labeled co-activator peptides. Europium-His-RORγt-LBD is indirectly labeled by donor (Eu) by binding to Eu-anti-His antibody. Once Eu is activated by an energy source (such as flashlight or laser), the energy will be transferred to the co-activator indirectly labeled by allophycocyanin by binding of allophycocyanin-streptavidin and biotin-labeled co-activator. • 1. 10× buffer (500 mM Tris-HCl, 500 mM KCl, and 10 mM Na-EDTA) was prepared, pH value was adjusted to 7.0. The buffer was stored at 4° C. for later use and was restored to normal temperature before experiment; • 2. The 10× buffer was diluted to 1× with pure water. Final concentration of 0.01% Triton X-100 and 1 mM DTT (dithiothreitol) were added to prepare the assay buffer; • 3. DMSO was used to prepare 1000× compound stock solution. The compound solution was serial-diluted in 5-fold for 7 concentrations from the top concentration of 1000 nM/10000 nM. Then the 10× compound solution was prepared with assay buffer. An amount of 2 μL was aliquoted into the 20 μL system; • 4. 5×RORγt-LBD protein solution was unfreezed, and a solution of 5× concentration was prepared with assay buffer to obtain a final concentration of 30 nM. The whole operation was carried out on ice; • 5. 5×SRC peptide was unfreezed, and a solution of 5× concentration was prepared with assay buffer to obtain a final concentration of 500 nM. The whole operation was carried out on ice; • 6. 4 μL/well of RORγt-LBD receptor was added into the testing wells of 384-well plate, and the same amount of assay buffer was added to the control wells of non-RORγt-LBD group; • 7. 2 μL of compound was added into each well of 384-well plate; • 8. 4 μL of SRC peptide was added into each well of 384-well plate; • 9. 2× Eu-anti-6× His/APC-Streptavidin was diluted with Lance detection buffer to a final concentration of 0.25 nM and 5 nM, respectively, and then 10 μL of 2× Eu-anti-6× His/APC-Streptavidin was added into each well of 384-well plate; • 10. The mixed solution was incubated at 4° C. overnight; • 11. On the morning of the next day, the 384-well plate was incubated at room temperature for 1 hr. Then the corresponding signal values were read with PerkinElmer EnVision at a wavelength of 665/615 […]. The agonistic activity of the corresponding compound was calculated with Graphpad Prism 7.0 software.

RORγt = target: T2, RORγt (Homo sapiens, UniProt P51449); test: RORγt cellular reporter gene detection assay; type: cell-based; conditions: 24 hrs; for EC50: HEK 293 cells co-transfected with pFN26A-RORγt-LBD and pG14.35, in presence of antagonist Ursolic acid, top concentration 50 μM; for Cellular Reporter Assay Amax: upper activation limit, HEK 293 cells, in presence of antagonist Ursolic acid;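 on Cellular Reporter Assay Amax: Ursolic Acid added as 5 µL of 20 µM medium per well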
T2 construct: The plasmid of pFN26A-RORγt-LBD and pG14.35 (Promega, Cat. No. E1370) were co-transfected into HEK 293 cells; expressed in transfected cells; host or cells: HEK 293 cells (Cat. No. GNHu18)
T2 sequence (P51449 269-508 limits assumed): T1 sequence (P51449 269-508 limits assumed)
Protocol: II. RORγt Cellular Reporter Gene Detection Assay
In this experiment, RORγt Reporter Gene Detection method was used to evaluate the activation and specificity of compounds to RORγt in cells. The plasmid of pFN26A-RORγt-LBD and pG14.35 (Promega, Cat. No. E1370) were co-transfected into HEK 293 cells (Cat. No. GNHu18). The efficacy of compounds was evaluated with the presence of an antagonist Ursolic acid (Selleck, Cat. No. S2370-100 mg). The specific experimental process was as follow: • 1. The plasmids-co-transfected cells were inoculated into a 96-well plate (Corning, Cat. No 3610) in a fresh DMEM medium (Gibco, cat. No. 1773536) containing 10% fetal bovine serum (Gibco, Cat. No. 10099-141) at 30000 cells/40 μL/well; • 2. 5 μL of medium containing 20 μM Ursolic acid was added thereto; • 3. The dose effect was evaluated by a 4-fold dilution of the test compound starting from 50 μM; • 4. 5 μL of medium containing a compound concentration of 10-fold of its final test concentration was added; • 5. After the cells were incubated at 37° C. and 5% CO2 for 24 hrs, 50 μL of detection reagent was added to detect firefly fluorescence using PerkinElmerEnVision, and 50 μL of the second detection reagent was added to detect sea kidney fluorescence; • 6. A four-parameter curve simulated in GraphPad Prism was used to determine the concentration for 50% activation (EC50) and the upper activation limit (Amax) for each compound.

Row | SMILES | EC50 (RORγt-LBD) [nM] | TR-FRET Biochemical Amax (RORγt-LBD) | EC50 (RORγt) [nM] | Cellular Reporter Assay Amax (RORγt)
1 | CN1CCN(S(=O)(=O)c2cccc(C(F)(F)F)c2)c2cc(-c3cc(F)cc(OC(F)F)c3)ccc21 [Example 1, 6-(3-(difluoromethoxy)-5-fluorophenyl)-1-methyl-4-((3-(trifluoromethyl)phenyl)sulfonyl)-1,2,3,4-tetrahydroquinoxaline] | 18.4 | 1.61 | 518 | 3.3
2 | O=S(=O)(c1cccc(C(F)(F)F)c1)N1CCNc2ccc(-c3cc(F)cc(OC(F)F)c3)cc21 [Example 2, 7-(3-(difluoromethoxy)-5-fluorophenyl)-1-((3-(trifluoromethyl)phenyl)sulfonyl)-1,2,3,4-tetrahydroquinoxaline] | 18.1 | 1.85 | 163 | 3.1
3 | C/C(=C\c1ccc2c(c1)N(S(=O)(=O)c1cccc(C(F)(F)F)c1)C[C@H](CCC(=O)O)N2C)c1c(F)cccc1Cl [Example 3, (S,E)-3-(6-(2-(2-chloro-6-fluorophenyl)prop-1-en-1-yl)-1-methyl-4-((3-(trifluoromethyl)phenyl)sulfonyl)-1,2,3,4-tetrahydroquinoxalin-2-yl)propanoic acid] | 29.1 | 1.20 | 1740 | 4.4
4 | O=S(=O)(c1cccc(C(F)(F)F)c1)N1C[C@@H]2CCCN2c2ccc(-c3cc(F)cc(OC(F)F)c3)cc21 [Example 4, (S)-7-(3-(difluoromethoxy)-5-fluorophenyl)-5-((3-(trifluoromethyl)phenyl)sulfonyl)-1,2,3,3a,4,5-hexa-hydropyrrolo[1,2-a]qui-noxaline] | 28.4 | 1.25 | 3550 | 4.9
5 | CN1c2ccc(-c3cc(F)cc(OC(F)F)c3)cc2N(S(=O)(=O)c2cccc(C(F)(F)F)c2)C[C@@H]1CCC(=O)O [Example 5, (S)-3-(6-(3-(difluorome-thoxy)-5-fluorophenyl)-1-methyl-4-((3-(trifluorometh-yl)phenyl)sulfonyl)-1,2,3,4-tetrahydroquinoxalin-2-yl)propanoic acid] | 9.68 | 1.39 | 1030 | 5.0
6 | CN1c2ccc(/C=C/c3c(Cl)cccc3C(F)(F)F)cc2N(S(=O)(=O)c2cccc(C(F)(F)F)c2)C[C@@H]1CCC(=O)O [Example 6, (S,E)-3-(6-(2-chloro-6-(tri-fluoromethyl)styryl)-1-meth-yl-4-((3-(trifluoromethyl)phenyl)sulfonyl)-1,2,3,4-tetrahydroquinoxalin-2-yl) propanoic acid] | 16.1 | 1.54 | 528 | 4.2
7 | CC(=O)N1CCN2c3ccc(-c4cc(F)cc(OC(F)F)c4)cc3N(S(=O)(=O)c3cccc(C(F)(F)F)c3)C[C@@H]2C1 [Example 7, (S)-1-(8-(3-(difluoromethoxy)-5-fluorophenyl)-6-((3-(trifluoromethyl)phenyl)sulfonyl)-1,2,4,4a,5,6-hexahydro-3H-pyrazino[1,2-a]quinoxalin-3-yl)ethan-1-one] | 17.5 | 1.45 | 145 | 3.7
8 | CS(=O)(=O)N1CCN2c3ccc(-c4cc(F)cc(OC(F)F)c4)cc3N(S(=O)(=O)c3cccc(C(F)(F)F)c3)C[C@@H]2C1 [Example 8, (S)-8-(3-(difluoromethoxy)-5-fluorophenyl)-3-(methylsulfonyl)-6-((3-(trifluoromethyl)phenyl)sulfonyl)-2,3,4,4a,5,6-hexahydro-1H-pyrazino[1,2-a]quinoxaline] | 13.3 | 1.22 | 90.4 | 5.5
9 | O=C(O)CN1CCN2c3ccc(-c4cc(F)cc(OC(F)F)c4)cc3N(S(=O)(=O)c3cccc(C(F)(F)F)c3)C[C@@H]2C1 [Example 9, (S)-2-(8-(3-(difluoromethoxy)-5-fluorophenyl)-6-((3-(trifluoromethyl)phenyl)sulfonyl)-1,2,4,4a,5,6-hexahydro-3H-pyrazino[1,2-a]quinoxalin-3-yl)acetic acid] | 11.6 | 0.63 | 290 | 3.5
10 | C/C(=C\c1ccc2c(c1)N(S(=O)(=O)c1cccc(C(F)(F)F)c1)C[C@@H]1CNCCN21)c1c(F)cccc1Cl [Example 10, (S,E)-8-(2-(2-chloro-6-fluorophenyl)prop-1-en-1-yl)-6-((3-(trifluoromethyl)phenyl)sulfonyl)-2,3,4,4a,5,6-hexahydro-1H-pyrazino[1,2-a]quinoxaline] | 13.6 | 0.81 | 578 | 2.8
11 | O=S(=O)(c1cccc(C(F)(F)F)c1)N1C[C@@H]2CNCCN2c2ccc(/C=C/c3c(Cl)cccc3C(F)(F)F)cc21 [Example 11, (S,E)-8-(2-chloro-6-(tri-fluoromethyl)styryl)-6-((3-(trifluoromethyl)phenyl)sulfonyl)-2,3,4,4a,5,6-hexa-hydro-1H-pyrazino[1,2-a]quinoxaline] | 21.7 | 0.82 | 429 | 3.2
12 | O=S(=O)(c1cccc(C(F)(F)F)c1)N1C[C@@H]2CNCCN2c2ccc(-c3cc(F)cc(OC(F)F)c3)cc21 [Example 12, (S)-8-(3-(difluoromethoxy)-5-fluorophenyl)-6-((3-(trifluoromethyl)phenyl)sulfonyl)-2,3,4,4a,5,6-hexa-hydro-1H-pyrazino[1,2-a]quinoxaline] | 136 | 0.67 | 2390 | 4.3
13 | CC1(C)C=C(c2ccc3c(c2)N(S(=O)(=O)c2cccc(C(F)(F)F)c2)C[C@@H]2CN(C[C@@H](O)CO)CCN32)CC(C)(C)O1 [Example 41, (R)-3-((S)-8-(2,2,6,6-tetrameth-yl-3,6-dihydro-2H-pyran-4-yl)-6-((3-(trifluoromethyl)phe-nyl)sulfonyl)-1,2,4,4a,5,6-hexa-hydro-3H-pyrazino[1,2-a]qui-noxalin-3-yl)propane-1,2-diol] | 6.73 | 1.01 |  | 
